Test results as given in ChEMBL document CHEMBL1149517, “Synthesis and molecular modeling of a lisinopril-tryptophan analogue inhibitor of angiotensin I-converting enzyme” (Bioorg Med Chem Lett, 2006).
Calls of active or inactive are those of the source. The calls are words filed in the database; no cut-off is given here.

Experiments:
[1] = target: T1, Angiotensin-converting enzyme (Homo sapiens, UniProt P12821); experiment: Inhibition of testis ACE C domain
[2] = target: T1, Angiotensin-converting enzyme; experiment: Inhibition of somatic ACE N domain upto 500 uM
[3] = target: T1, Angiotensin-converting enzyme; experiment: Selectivity for ACE C domain over ACE N domain

T1 sequence (P12821 whole entry): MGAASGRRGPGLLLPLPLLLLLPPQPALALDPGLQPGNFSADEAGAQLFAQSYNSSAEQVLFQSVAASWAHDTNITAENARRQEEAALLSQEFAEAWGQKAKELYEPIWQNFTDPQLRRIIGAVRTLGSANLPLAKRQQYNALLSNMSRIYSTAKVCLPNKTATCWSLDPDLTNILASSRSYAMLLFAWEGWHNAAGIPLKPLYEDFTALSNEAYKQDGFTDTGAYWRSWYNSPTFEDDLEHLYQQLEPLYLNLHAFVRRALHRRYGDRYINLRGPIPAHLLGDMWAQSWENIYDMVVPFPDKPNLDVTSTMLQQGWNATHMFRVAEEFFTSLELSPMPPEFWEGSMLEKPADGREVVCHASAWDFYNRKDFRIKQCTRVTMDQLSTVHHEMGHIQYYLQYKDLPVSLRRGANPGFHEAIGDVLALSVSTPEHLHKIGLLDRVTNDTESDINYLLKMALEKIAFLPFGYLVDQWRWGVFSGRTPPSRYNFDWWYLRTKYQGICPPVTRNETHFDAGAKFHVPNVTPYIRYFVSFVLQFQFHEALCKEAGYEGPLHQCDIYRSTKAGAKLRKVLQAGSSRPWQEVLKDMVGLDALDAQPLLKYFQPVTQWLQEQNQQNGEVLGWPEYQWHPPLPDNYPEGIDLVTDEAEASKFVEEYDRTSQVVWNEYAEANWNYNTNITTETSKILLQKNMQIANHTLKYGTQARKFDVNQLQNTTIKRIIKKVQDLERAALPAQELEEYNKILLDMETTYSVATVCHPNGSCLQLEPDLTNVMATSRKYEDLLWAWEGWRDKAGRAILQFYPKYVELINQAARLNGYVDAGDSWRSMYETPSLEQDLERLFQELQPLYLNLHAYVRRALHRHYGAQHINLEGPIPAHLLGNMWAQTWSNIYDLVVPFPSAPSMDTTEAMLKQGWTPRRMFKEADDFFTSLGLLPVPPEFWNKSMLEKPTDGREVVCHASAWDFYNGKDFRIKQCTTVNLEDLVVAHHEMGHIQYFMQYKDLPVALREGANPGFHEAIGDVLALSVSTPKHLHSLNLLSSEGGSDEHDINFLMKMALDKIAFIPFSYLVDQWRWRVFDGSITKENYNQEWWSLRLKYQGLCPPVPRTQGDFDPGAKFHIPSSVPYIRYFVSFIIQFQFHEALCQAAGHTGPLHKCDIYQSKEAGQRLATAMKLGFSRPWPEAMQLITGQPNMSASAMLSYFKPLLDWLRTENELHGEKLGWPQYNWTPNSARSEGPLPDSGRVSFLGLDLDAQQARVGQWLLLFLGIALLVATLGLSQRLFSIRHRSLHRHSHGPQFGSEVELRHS

| Ki [1] | Activity [2] | Ratio Ki [3] | SMILES |
| --- | --- | --- | --- |
| 7 µM | inactive | > 100 | NCCCC[C@H](N[C@@H](CCc1ccccc1)C(=O)O)C(=O)N[C@@H](Cc1c[nH]c2ccccc12)C(=O)O |
| 26.3 µM | inactive | > 25 | NCCCC[C@H](N[C@H](CCc1ccccc1)C(=O)O)C(=O)N[C@@H](Cc1c[nH]c2ccccc12)C(=O)O |
